{"source": "patent US20200172927A1", "about": "“REP[…] […] FOR TREATMENT OF NEURODEGENERATION” (The Trustees of Columbia University in the City of New York, priority 2017, published 2020)", "system": "HIF2a and GLUT1", "assay": "Immunoblot of retinas from B6 mice orally fed VH298 for 3 days", "type": "in vivo", "settings": "6-week old B6 mice, oral, VH298 in oil 10, 20, or 50 mg/kg, retinas collected 4 hours after last feeding, vs oil only control", "procedure": "6-week old B6 mice were orally fed for 3 days with VH298 in oil (10, 20, or 50 mg/kg) or oil only for the control group. Each group contained 3 mice. 4 hours after the last feeding, mice retinas were collected and processed immediately for immunoblot. Protein levels of HIF2a, and Glut1 were shown. B-actin was used as loading control.\n6-week old B6 mice were orally fed for 3 days with VH298 in oil (10, 20, or 50 mg/kg) or oil only for the control group. Each group contained 3 mice. 4 hours after the last feeding, mice retinas were collected and processed immediately for immunoblot."}
{"compound": "Cc1ncsc1-c1ccc(CNC(=O)[C@@H]2C[C@@H](O)CN2C(=O)[C@@H](NC(=O)C2(C#N)CC2)C(C)(C)C)cc1", "note": "[VH298, (2S,4R)-1-((S)-2-(1-cyanocyclopropanecarboxamido)-3,3-dimethylbutanoyl)-4-hydroxy-N-(4-(4-methylthiazol-5-yl)benzyl)pyrrolidine-2-carboxamide]", "values": [{"measurement": "Protein level of GLUT1 in retina (immunoblot)", "value": "dose-dependent increase"}, {"measurement": "Protein level of HIF2a in retina (immunoblot)", "value": "dose-dependent increase"}]}
